Measured values: US9738634B2, “Heterocyclic amide compound and herbicide” (SYNGENTA PARTICIPATIONS AG, priority 2013, dated 2017)

Key:
Format in all cases: in vivo
Conditions in all cases: treatment dosage 315 g/ha
[1] = tested on: birds-eye speedwell; test: Test Example 3: weedkilling efficacy through soil treatment; p: birds-eye speedwell
Summary of the method: (§1)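 Crop and weed responses were judged three weeks after a uniform surface spray of the water-diluted emulsion at the given g/ha rate. Seeds sat beneath about 1.5 cm of sterilized diluvial soil, and boxes stood in a greenhouse at 25 to 30° C.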

[2] = tested on: common wind-grass; test: Test Example 3: weedkilling efficacy through soil treatment; J: common wind-grass
Summary of the method: as §1

[3] = tested on: barnyard grass; test: Test Example 4: weedkilling efficacy by foliar treatment; F: barnyard grass
Summary of the method: (§2)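 Seeds are spot-sown into sterilized diluvial soil and covered with about 1.5 cm of soil. After 14 days' greenhouse growth at 25 to 30° C, plants are sprayed on stems and leaves with diluted emulsion at the stated g/ha rate, then scored at 3 weeks.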

[4] = tested on: chickweed; test: Test Example 3: weedkilling efficacy through soil treatment; N: chickweed
Summary of the method: as §1

[5] = tested on: black-grass; test: Test Example 3: weedkilling efficacy through soil treatment; H: black-grass
Summary of the method: as §1

[6] = tested on: barnyard grass; test: Test Example 1: weedkilling efficacy, preemergent weed treatment in the submerged state; A: barnyard grass
Summary of the method: (§3)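 Pre-emergence paddy test: weed seeds sown in submerged alluvial soil (4 cm water), 2.5-leaf rice transplanted, water-diluted emulsion applied to water surface at sowing at stated g/ha. Scored at 3 weeks, greenhouse 25–30 °C.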

[7] = tested on: Indian mallow; test: Test Example 3: weedkilling efficacy through soil treatment; K: Indian mallow
Summary of the method: as §1

[8] = tested on: Italian ryegrass; test: Test Example 3: weedkilling efficacy through soil treatment; I: Italian ryegrass
Summary of the method: as §1

[9] = tested on: catchweed; test: Test Example 4: weedkilling efficacy by foliar treatment; O: catchweed
Summary of the method: as §2

[10] = tested on: crabgrass; test: Test Example 4: weedkilling efficacy by foliar treatment; D: crabgrass
Summary of the method: as §2

[11] = tested on: directly sown rice; test: Test Example 4: foliar treatment, effect on crop; b: directly sown rice
Summary of the method: as §2

[12] = tested on: chickweed; test: Test Example 4: weedkilling efficacy by foliar treatment; N: chickweed
Summary of the method: as §2

[13] = tested on: redroot pigweed; test: Test Example 4: weedkilling efficacy by foliar treatment; L: redroot pigweed
Summary of the method: as §2

[14] = tested on: bulrush; test: Test Example 2: weedkilling efficacy, growth period weed treatment in the submerged state; B: bulrush
Summary of the method: (§4)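 Seedlings at 1-2 leaves in 4 cm-deep submerged alluvial soil received emulsion formulations on the water surface, dosed per hectare; effects were judged 3 weeks on.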

[15] = tested on: wild oat; test: Test Example 4: weedkilling efficacy by foliar treatment; G: wild oat
Summary of the method: as §2

[16] = tested on: corn; test: Test Example 3: soil treatment, effect on crop; c: corn
Summary of the method: as §1

[17] = tested on: Italian ryegrass; test: Test Example 4: weedkilling efficacy by foliar treatment; I: Italian ryegrass
Summary of the method: as §2

[18] = tested on: beet; test: Test Example 4: foliar treatment, effect on crop; f: beet
Summary of the method: as §2

[19] = tested on: oval-leafed pondweed; test: Test Example 2: weedkilling efficacy, growth period weed treatment in the submerged state; C: oval-leafed pondweed
Summary of the method: as §4

[20] = tested on: black-grass; test: Test Example 4: weedkilling efficacy by foliar treatment; H: black-grass
Summary of the method: as §2

[21] = tested on: rapeseed; test: Test Example 4: foliar treatment, effect on crop; g: rapeseed
Summary of the method: as §2

[22] = tested on: directly sown rice; test: Test Example 3: soil treatment, effect on crop; b: directly sown rice
Summary of the method: as §1

[23] = tested on: redroot pigweed; test: Test Example 3: weedkilling efficacy through soil treatment; L: redroot pigweed
Summary of the method: as §1

[24] = tested on: bulrush; test: Test Example 1: weedkilling efficacy, preemergent weed treatment in the submerged state; B: bulrush
Summary of the method: as §3

[25] = tested on: Indian mallow; test: Test Example 4: weedkilling efficacy by foliar treatment; K: Indian mallow
Summary of the method: as §2

[26] = tested on: common wind-grass; test: Test Example 4: weedkilling efficacy by foliar treatment; J: common wind-grass
Summary of the method: as §2

[27] = tested on: transplanted rice; test: Test Example 1: preemergent weed treatment in the submerged state, effect on crop; a: transplanted rice
Summary of the method: as §3

[28] = tested on: wheat; test: Test Example 3: soil treatment, effect on crop; e: wheat
Summary of the method: as §1

[29] = tested on: barnyard grass; test: Test Example 2: weedkilling efficacy, growth period weed treatment in the submerged state; A: barnyard grass
Summary of the method: as §4

[30] = tested on: soybean; test: Test Example 3: soil treatment, effect on crop; d: soybean
Summary of the method: as §1

[31] = tested on: green foxtail; test: Test Example 4: weedkilling efficacy by foliar treatment; E: green foxtail
Summary of the method: as §2

[32] = tested on: oval-leafed pondweed; test: Test Example 1: weedkilling efficacy, preemergent weed treatment in the submerged state; C: oval-leafed pondweed
Summary of the method: as §3

[33] = tested on: birds-eye speedwell; test: Test Example 4: weedkilling efficacy by foliar treatment; p: birds-eye speedwell
Summary of the method: as §2

[34] = tested on: soybean; test: Test Example 4: foliar treatment, effect on crop; d: soybean
Summary of the method: as §2

[35] = tested on: wild oat; test: Test Example 3: weedkilling efficacy through soil treatment; G: wild oat
Summary of the method: as §1

[36] = tested on: crabgrass; test: Test Example 3: weedkilling efficacy through soil treatment; D: crabgrass
Summary of the method: as §1

[37] = tested on: barnyard grass; test: Test Example 3: weedkilling efficacy through soil treatment; F: barnyard grass
Summary of the method: as §1

[38] = tested on: green foxtail; test: Test Example 3: weedkilling efficacy through soil treatment; E: green foxtail
Summary of the method: as §1

[39] = tested on: corn; test: Test Example 4: foliar treatment, effect on crop; c: corn
Summary of the method: as §2

[40] = tested on: wheat; test: Test Example 4: foliar treatment, effect on crop; e: wheat
Summary of the method: as §2

[41] = tested on: beet; test: Test Example 3: soil treatment, effect on crop; f: beet
Summary of the method: as §1

[42] = tested on: rapeseed; test: Test Example 3: soil treatment, effect on crop; g: rapeseed
Summary of the method: as §1

## CC1=C(c2ccccc2)C(=O)N(C(C)(C)C(=O)Nc2cccc(C(F)F)n2)CO1 [B-2-55]
[1]
  P (birds-eye speedwell) weedkilling efficacy grade: 5 (weed kill ratio 90% or more, (practically complete withering))
[2]
  J (common wind-grass) weedkilling efficacy grade: 5 (weed kill ratio 90% or more, (practically complete withering))
[3]
  F (barnyard grass) weedkilling efficacy grade: 5 (weed kill ratio 90% or more, (practically complete withering))
[4]
  N (chickweed) weedkilling efficacy grade: 4 (weed kill ratio 70% or more, less than 90%)
[5]
  H (black-grass) weedkilling efficacy grade: 5 (weed kill ratio 90% or more, (practically complete withering))
[6]
  A (barnyard grass) weedkilling efficacy grade: 5 (weed kill ratio 90% or more, (practically complete withering))
[7]
  K (Indian mallow) weedkilling efficacy grade: 1 (weed kill ratio 5% or more, less than 20%)
[8]
  I (Italian ryegrass) weedkilling efficacy grade: 5 (weed kill ratio 90% or more, (practically complete withering))
[9]
  O (catchweed) weedkilling efficacy grade: 5 (weed kill ratio 90% or more, (practically complete withering))
[10]
  D (crabgrass) weedkilling efficacy grade: 5 (weed kill ratio 90% or more, (practically complete withering))
[11]
  b (directly sown rice) effect on crop grade: 5 (weed kill ratio 90% or more, (practically complete withering))
[12]
  N (chickweed) weedkilling efficacy grade: 4 (weed kill ratio 70% or more, less than 90%)
[13]
  L (redroot pigweed) weedkilling efficacy grade: 4 (weed kill ratio 70% or more, less than 90%)
[14]
  B (bulrush) weedkilling efficacy grade: 5 (weed kill ratio 90% or more, (practically complete withering))
[15]
  G (wild oat) weedkilling efficacy grade: 3 (weed kill ratio 40% or more, less than 70%)
[16]
  c (corn) effect on crop grade: 0 (weed kill ratio 5% or less (practically no effect))
[17]
  I (Italian ryegrass) weedkilling efficacy grade: 4 (weed kill ratio 70% or more, less than 90%)
[18]
  f (beet) effect on crop grade: 4 (weed kill ratio 70% or more, less than 90%)
[19]
  C (oval-leafed pondweed) weedkilling efficacy grade: 5 (weed kill ratio 90% or more, (practically complete withering))
[20]
  H (black-grass) weedkilling efficacy grade: 5 (weed kill ratio 90% or more, (practically complete withering))
[21]
  g (rapeseed) effect on crop grade: 4 (weed kill ratio 70% or more, less than 90%)
[22]
  b (directly sown rice) effect on crop grade: 4 (weed kill ratio 70% or more, less than 90%)
[23]
  L (redroot pigweed) weedkilling efficacy grade: 4 (weed kill ratio 70% or more, less than 90%)
[24]
  B (bulrush) weedkilling efficacy grade: 5 (weed kill ratio 90% or more, (practically complete withering))
[25]
  K (Indian mallow) weedkilling efficacy grade: 4 (weed kill ratio 70% or more, less than 90%)
[26]
  J (common wind-grass) weedkilling efficacy grade: 5 (weed kill ratio 90% or more, (practically complete withering))
[27]
  a (transplanted rice) effect on crop grade: 3 (weed kill ratio 40% or more, less than 70%)
[28]
  e (wheat) effect on crop grade: 0 (weed kill ratio 5% or less (practically no effect))
[29]
  A (barnyard grass) weedkilling efficacy grade: 5 (weed kill ratio 90% or more, (practically complete withering))
[30]
  d (soybean) effect on crop grade: 3 (weed kill ratio 40% or more, less than 70%)
[31]
  E (green foxtail) weedkilling efficacy grade: 5 (weed kill ratio 90% or more, (practically complete withering))
[32]
  C (oval-leafed pondweed) weedkilling efficacy grade: 5 (weed kill ratio 90% or more, (practically complete withering))
[33]
  P (birds-eye speedwell) weedkilling efficacy grade: 5 (weed kill ratio 90% or more, (practically complete withering))
[34]
  d (soybean) effect on crop grade: 4 (weed kill ratio 70% or more, less than 90%)
[35]
  G (wild oat) weedkilling efficacy grade: 4 (weed kill ratio 70% or more, less than 90%)
[36]
  D (crabgrass) weedkilling efficacy grade: 5 (weed kill ratio 90% or more, (practically complete withering))
[37]
  F (barnyard grass) weedkilling efficacy grade: 5 (weed kill ratio 90% or more, (practically complete withering))
[38]
  E (green foxtail) weedkilling efficacy grade: 5 (weed kill ratio 90% or more, (practically complete withering))
[39]
  c (corn) effect on crop grade: 4 (weed kill ratio 70% or more, less than 90%)
[40]
  e (wheat) effect on crop grade: 2 (weed kill ratio 20% or more, less than 40%)
[41]
  f (beet) effect on crop grade: 3 (weed kill ratio 40% or more, less than 70%)
[42]
  g (rapeseed) effect on crop grade: 2 (weed kill ratio 20% or more, less than 40%)
